In assay [1] the target is T1, hKv1.2 channel (Homo sapiens, UniProt P16389).
T1 construct: expressed in transfected cells; host or cells: HEK293T
Description: Whole-cell patch clamp, hKv1.2 channel overexpressed in HEK293T cells. It counts as cell-based. The following applies: mean ± S.E., n ≥ 3, SEM. The method, then:
(§1) To investigate the electrophysiological activities of BmK86-P1, the whole-cell patch clamp technique was applied to test the effects of BmK86-P1 on multiple potassium channels. The hKv1.1, hKv1.2, hKv1.3, hKv1.6, hKv3.2, mKv4.1, rKv4.2, rKv4.3 and hERG channels were overexpressed in HEK293T cells, then the inhibitory effects of BmK86-P1 at 1 μM on these potassium channels were measured. […] To further investigate the affinity of BmK86-P1 inhibiting the hKv1.2 channel, a dose-dependent study was performed by examining the inhibitory effects of different concentrations of BmK86-P1.
(§2) All potassium channel expression vectors were given by others or constructed by ourselves. HEK293T cells were cultured in Dulbecco’s modified Eagle medium (Gibco, Pittsburgh, PA, USA) with 10% fetal bovine serum and penicillin/streptomycin (100 units/mL) in a 5% CO2 incubator at 37 °C. Potassium channel expression vectors and pEGFP-N1 were co-transfected into HEK293T cells using TurboFect in vitro Transfection Reagent (Thermo Scientific, Waltham, MA, USA) according to the manufacturer’s instructions. The potassium currents were recorded after transfection for 1 to 3 days.
The channel currents were measured and recorded by whole-cell patch clamp technology according to previously published references. The internal patch pipette solution and the bath solution were prepared as previously described. All the test peptides were dissolved into bath solution supplemented with 0.01% BSA. An MPS-2 multichannel microperfusion system (INBIO Inc., Wuhan, China) was applied to change the external recording bath solution. The infusion time of the peptides should not exceed 20 min to maintain good cell conditions during electrophysiological recordings. The channel currents were recorded at room temperature (~25 °C) using an EPC 10 patch clamp amplifier. The results were presented as the means ± S.E., and in every sample at least three cells (n ≥ 3) were examined.
(§3) The ClampFit (Molecular Devices, Sunnyvale, CA, USA) and SigmaPlot software ([…], Chicago, IL, USA) were used to analyze the recorded data. […]
On the technique in general: In patch-clamp work, channel activity is measured electrically.

Assay [2] has as its target T2, hKv1.3 channel (Homo sapiens, UniProt P22001).
T2 construct: expressed in transfected cells; host or cells: HEK293T
Description: Whole-cell patch clamp, hKv1.3 channel overexpressed in HEK293T cells. It is filed as cell-based. The following applies: 1 μM peptide, room temperature (~25 °C), mean ± S.E., n ≥ 3, SEM. The method, then:
as §1
(§4) All potassium channel expression vectors were given by others or constructed by ourselves. HEK293T cells were cultured in Dulbecco’s modified Eagle medium (Gibco, Pittsburgh, PA, USA) with 10% fetal bovine serum and penicillin/streptomycin (100 units/mL) in a 5% CO2 incubator at 37 °C. […] The potassium currents were recorded after transfection for 1 to 3 days.
(§5) The channel currents were measured and recorded by whole-cell patch clamp technology according to previously published references. […] The channel currents were recorded at room temperature (~25 °C) using an EPC 10 patch clamp amplifier. […]
as §3

For assay [3], the target named is T3, hKv1.2-V381Y (Homo sapiens, UniProt P16389, V381Y).
T3 construct: expressed in transfected cells; host or cells: HEK293T
Briefly: Whole-cell patch clamp, hKv1.2 channel mutant V381Y. The conditions noted are these: 100 nM peptide, HEK293T, mean ± S.E., n ≥ 3, SEM. It is filed as cell-based. The method, then:
(§6) To determine the functional sites of the hKv1.2 channel responsible for the selectivity of BmK86-P1, six hKv1.2 mutants were obtained based on sequence differences between the pore regions of the hKv1.2 and hKv1.1 channels (Figure 4A). Then, the activities of 100 nM BmK86-P1 on these six mutant channels were tested. […] The other three mutant channels (hKv1.2-D352E, hKv1.2-R354A and hKv1.2-P359S) still kept similar sensitivities toward BmK86-P1 compared with the wild-type hKv1.2 channel (Figure 4H,I,K,N).
as §2, §5

Assay [4] concerns rKv4.3 channel. Briefly: Whole-cell patch clamp, rKv4.3 channel overexpressed in HEK293T cells. It counts as cell-based, rat. The conditions noted are these: 1 μM peptide, mean ± S.E., n ≥ 3, SEM. The method, then: as §1, §4, §5, §3
Assay [5] deals with T4, mKv4.1 channel (Mus musculus, UniProt Q03719).
T4 construct: expressed in transfected cells; host or cells: HEK293T
T4 sequence (Q03719 1-651): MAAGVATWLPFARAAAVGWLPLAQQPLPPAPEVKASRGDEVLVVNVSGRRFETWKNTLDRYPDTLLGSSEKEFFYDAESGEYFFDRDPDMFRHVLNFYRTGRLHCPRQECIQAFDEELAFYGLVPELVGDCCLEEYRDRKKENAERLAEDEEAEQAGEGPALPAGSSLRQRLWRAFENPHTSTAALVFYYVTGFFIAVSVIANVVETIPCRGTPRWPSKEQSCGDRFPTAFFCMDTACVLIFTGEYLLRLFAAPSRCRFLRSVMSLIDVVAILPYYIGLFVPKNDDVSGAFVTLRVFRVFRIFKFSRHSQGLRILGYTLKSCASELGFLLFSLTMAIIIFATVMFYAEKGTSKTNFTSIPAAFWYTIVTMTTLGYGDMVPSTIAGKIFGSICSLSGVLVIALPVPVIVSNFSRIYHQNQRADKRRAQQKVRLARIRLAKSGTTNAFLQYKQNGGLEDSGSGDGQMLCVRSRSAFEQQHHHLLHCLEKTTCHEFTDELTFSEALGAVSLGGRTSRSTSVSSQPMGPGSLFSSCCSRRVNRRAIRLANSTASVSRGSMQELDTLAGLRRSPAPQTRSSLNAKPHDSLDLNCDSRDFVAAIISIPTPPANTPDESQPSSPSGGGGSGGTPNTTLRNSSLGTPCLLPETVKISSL
Briefly: Whole-cell patch clamp, mKv4.1 channel overexpressed in HEK293T cells. The conditions noted are these: 1 μM peptide, mean ± S.E., n ≥ 3, SEM. It is filed as cell-based. The method, then:
as §1, §4, §5, §3

Assay [6] concerns the target T5, hKv1.2-Q357H (Homo sapiens, UniProt P16389, Q357H).
T5 construct: expressed in transfected cells; host or cells: HEK293T
Description: Whole-cell patch clamp, hKv1.2 channel mutant Q357H. It counts as cell-based. The conditions noted are these: 100 nM peptide, HEK293T, mean ± S.E., n ≥ 3, SEM. As for the experimental part: as §6, §2, §5

Positions of bridges follow the written chain, without caps; N, C: chain ends. Residues, ends and D or L forms follow the SMILES beside them.

What is called IC50 is the concentration that gives 50% inhibition.

T1 sequence (P16389 whole entry): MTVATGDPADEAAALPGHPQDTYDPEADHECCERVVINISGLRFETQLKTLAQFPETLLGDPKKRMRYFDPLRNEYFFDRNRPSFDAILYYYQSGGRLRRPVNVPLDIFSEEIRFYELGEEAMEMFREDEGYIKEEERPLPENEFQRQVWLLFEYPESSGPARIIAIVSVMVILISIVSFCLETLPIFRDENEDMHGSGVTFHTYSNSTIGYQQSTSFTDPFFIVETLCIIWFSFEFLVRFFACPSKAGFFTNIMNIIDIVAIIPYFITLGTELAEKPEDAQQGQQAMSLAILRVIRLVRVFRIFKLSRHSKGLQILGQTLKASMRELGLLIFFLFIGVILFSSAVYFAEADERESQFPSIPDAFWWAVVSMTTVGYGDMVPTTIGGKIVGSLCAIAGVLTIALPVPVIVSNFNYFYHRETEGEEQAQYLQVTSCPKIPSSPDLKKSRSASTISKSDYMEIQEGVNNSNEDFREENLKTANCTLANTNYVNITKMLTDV
T2 sequence (P22001 whole entry): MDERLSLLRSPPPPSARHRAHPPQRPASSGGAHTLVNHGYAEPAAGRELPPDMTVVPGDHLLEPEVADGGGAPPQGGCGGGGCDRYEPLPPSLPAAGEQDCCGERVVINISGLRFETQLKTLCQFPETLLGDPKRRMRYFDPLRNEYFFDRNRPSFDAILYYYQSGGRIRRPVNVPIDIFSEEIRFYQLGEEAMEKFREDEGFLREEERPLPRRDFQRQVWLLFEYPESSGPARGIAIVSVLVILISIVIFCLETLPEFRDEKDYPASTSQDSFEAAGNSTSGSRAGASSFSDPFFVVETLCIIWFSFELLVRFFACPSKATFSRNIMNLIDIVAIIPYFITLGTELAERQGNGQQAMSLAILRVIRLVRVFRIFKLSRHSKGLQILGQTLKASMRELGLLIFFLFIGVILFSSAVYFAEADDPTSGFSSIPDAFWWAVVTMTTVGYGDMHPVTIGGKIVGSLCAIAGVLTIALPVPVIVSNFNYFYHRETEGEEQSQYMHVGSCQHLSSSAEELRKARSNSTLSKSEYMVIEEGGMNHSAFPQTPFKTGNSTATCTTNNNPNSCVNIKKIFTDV
T3 sequence (P16389 whole entry V381Y): as the sequence (P16389 whole entry) above, with V381Y counted along it
T5 sequence (P16389 whole entry Q357H): as the sequence (P16389 whole entry) above, with Q357H counted along it

Turning to `CC[C@H](C)[C@@H]1NC(=O)[C@@H]2CSSC[C@H](NC(=O)[C@H](C)N)C(=O)N[C@@H](CO)C(=O)N[C@@H](CCCCN)C(=O)N3CCC[C@H]3C(=O)N[C@H]3CSSC[C@H](NC(=O)[C@H](CCCNC(=N)N)NC(=O)CNC(=O)[C@H](CC(N)=O)NC1=O)C(=O)N[C@@H](Cc1c[nH]cn1)C(=O)N[C@H](C(=O)N[C@@H](Cc1ccc(O)cc1)C(=O)N[C@@H](Cc1ccc(O)cc1)C(=O)O)CSSC[C@H](NC(=O)[C@H](Cc1ccc(O)cc1)NC(=O)[C@H](CCCCN)NC(=O)[C@H](CCCNC(=N)N)NC3=O)C(=O)N[C@@H]([C@@H](C)CC)C(=O)N[C@@H](CC(=O)O)C(=O)N[C@@H](CCCCN)C(=O)NCC(=O)N[C@@H](C)C(=O)N[C@@H](CCCNC(=N)N)C(=O)N[C@@H](CC(N)=O)C(=O)NCC(=O)N[C@@H](CCCCN)C(=O)N2` [BmK86-P1] (H-ACSKPCRKYCIDKGARNGKCINGRCHCYY-OH; disulfide 2-20, 6-25, 10-27 (inferred); N-terminus and C-terminus assumed), the “inhibition of hKv1.2 channel currents” value in assay [1] (100 nM peptide) came to 74.1 ± 3.2%; in assay [1] (1 μM peptide, room temperature (~25 °C)), 88.6 ± 2.2%. Moreover, in assay [1] (dose-response curve fitted with Hill equation, read-out: IC50, inhibition of the hKv1.2 channel), the IC50 was 28.5 ± 6.3 nM. For the same compound, the “inhibition of hKv1.3 channel currents” value in assay [2] stood at 52.1 ± 3.1%. Moreover, the “inhibition of hKv1.2-V381Y channel currents” value in assay [3] was 1.6 ± 0.1%. Besides, the “inhibition of Kv4.3 channel currents” value in assay [4] is given as 4.9 ± 0.3%. Further, in assay [5], the “inhibition of Kv4.1 channel currents” value came to 3.4 ± 1.1%. The “inhibition of hKv1.2-Q357H channel currents” value in assay [6] was 37.3 ± 1.5%.

Source of the values: paper PMC8472965, “BmK86-P1, a New Degradation Peptide with Desirable Thermostability and Kv1.2 Channel-Specific Activity from Traditional Chinese Scorpion Medicinal Material” (Toxins, 2021).
